Measured values published in patent US10660967B2, “Curcumin conjugates and methods of use thereof” (priority 2016, dated 2020).
Read-outs that look alike come from different tables or passages of the source.

Experiments:
[1] = tested on: Salmonella typhi ATCC19430; assay: Antimicrobial MIC, agar dilution; format: cell-based; conditions: Salmonella enterica, read-out: Minimum inhibitory concentration (MIC)
[2] = tested on: PC3 (prostate) carcinoma cell line; assay: Anti-tumor properties, MTT; format: cell-based; conditions: Homo sapiens
[3] = tested on: Pseudomonas aeruginosa ATCC27853; assay: Antimicrobial MIC, agar dilution
[4] = tested on: Candida albicans (local isolate); assay: Antimicrobial MIC, agar dilution; conditions: Candida albicans, read-out: Minimum inhibitory concentration (MIC)
[5] = tested on: A-549 (lung) carcinoma cell line; assay: Anti-tumor properties, MTT; format: cell-based; conditions: Homo sapiens, A549
[6] = tested on: Streptococcus pyogenes ATCC19615; assay: Antimicrobial MIC, agar dilution
[7] = tested on: MCF7 (breast) carcinoma cell line; assay: Anti-tumor properties, MTT; format: cell-based; conditions: Homo sapiens; for activity at 100 µM: read-out: Percentage growth of tumor cell lines treated with the tested compounds (±SD)
Summary of the method: (§1)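 Cells seeded at 10×10^3 per well for 24 h, then exposed to compound in serum-free medium (final up to 100 μM, 0.5% DMSO vehicle) for 72 h in triplicate. Viability by MTT reduction (4 h, SDS solubilised), absorbance 595 nm/ref 620 nm; IC50 from survival curves.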

[8] = tested on: HCT116 (colon) carcinoma cell line; assay: Anti-tumor properties, MTT; format: cell-based; conditions: Homo sapiens; for IC50: read-out: IC50 (μM) HCT116 (colon); for activity at 100 µM: read-out: Percentage growth of tumor cell lines treated with the tested compounds (±SD)
Summary of the method: as §1

[9] = tested on: HepG2 (hepatocellular) carcinoma cell line; assay: Anti-tumor properties, MTT; format: cell-based; conditions: Homo sapiens; for activity at 100 µM: read-out: Percentage growth of tumor cell lines treated with the tested compounds (±SD)
Summary of the method: as §1

[10] = tested on: PHA-stimulated splenocytes; assay: Proliferative response of PHA-stimulated splenocytes (MTT assay); format: cell-based; conditions: PHA 5 μg/ml, 72 hr; compounds at 5 μM (method says 10 μM); ratio of O.D. versus vehicle control
Summary of the method: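 Readout was MTT absorbance (570 nm, reference 690 nm) after 72 h culture at 37° C. Splenocytes at 1×10^6 cells/well received test compound (10 μM final) alone or plus PHA 5 μg/ml as T-cell mitogen. Values are OD ratios of compound over vehicle control (stimulation index).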

[11] = tested on: Staphylococcus aureus ATCC25923; assay: Antimicrobial MIC, agar dilution
[12] = tested on: MCF-7 cells; assay: Effect on doxorubicin induced cytotoxicity (MTT); conditions: for Percentage of viable cells MCF-7 (average ± SD): 10 μM DOX in combination with 100 μM curcumin derivative; for viability at 100 µM: Homo sapiens, MCF7, 48 h
Summary of the method: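 MCF-7 cells were exposed for 48 hr to 100 μM curcumin derivative alone or combined with 10 μM doxorubicin. Controls got medium, DMSO vehicle, or vehicle+doxorubicin. Percent viable cells was read by MTT assay.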

[13] = tested on: gastric mucosa; assay: Ulcerogenic liability (ulcer index); format: in vivo, albino mice
Protocol: The ulcerogenic liability was investigated in albino mice using the standard method. […] The animals were fasted 18 h before drug administration. […] The control group animals were given saline solution only with few drops of Tween 80. […] The gastric mucosa was examined with a magnifying lens (10×) for the presence of lesions and erosions.
1. percentage incidence of ulcer divided by 10;
2. average number of ulcers per stomach; and
3. average severity of ulcers;

[14] = tested on: lipopolysaccharide-stimulated peritoneal macrophages; assay: Production of nitric oxide by lipopolysaccharide-stimulated peritoneal macrophages (Greiss reagent); format: cell-based; parameters: Potency (%): % inhibition of nitric oxide production relative to lipopolysaccharide-stimulated macrophages: concentration or dose not given beside the values; conditions: LPS-stimulated peritoneal macrophages; for Nitric oxide (nitrite) concentration, μM (average ± SD): 24 h, nitrite by Greiss reagent
Summary of the method: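 NO output was quantified as accumulated nitrite, reacting supernatant with Greiss reagent (sulfanilamide/α-naphthylamine) and reading at 532 nm. Beforehand, cells had been incubated 24 h at 37° C. in nitrite-free, 0.1% BSA medium with 0.5–10 ng/ml LPS, with or without catecholamines at […].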

[15] = ATCC27853, 18 h, read-out: Minimum inhibitory concentration (MIC)
[16] = ATCC27853, read-out: Minimum inhibitory concentration (MIC)
[17] = ATCC19615, 18 h, read-out: Minimum inhibitory concentration (MIC)
[18] = ATCC19615, read-out: Minimum inhibitory concentration (MIC)
[19] = MCF7, read-out: IC50 (μM) MCF7 (breast)
[20] = HepG2, read-out: IC50 (μM) HepG2 (liver)
[21] = ATCC25923, 18 h, read-out: Minimum inhibitory concentration (MIC)
[22] = ATCC25923, read-out: Minimum inhibitory concentration (MIC)
[23] = read-out: Percentage of viable cells MCF-7 (average ± SD)
[24] = orally, three successive days, 10 mg/kg indomethacin mol equivalent
[25] = orally, three successive days, 10 mg/kg indomethacin mol equivalent, 6 animals per group
[26] = sum of the three values, orally, three successive days, 10 mg/kg indomethacin mol equivalent
[27] = both, albino, mouse, in vivo, po, 10 mg/kg, 3 days

Row | Compound | MIC ([1]; 18 h) [µg/mL] | MIC [1] [µM] | MIC [3, 15] [µg/mL] | MIC [3, 16] [µM] | MIC ([4]; 18 h) [µg/mL] | MIC [4] [µM] | MIC [6, 17] [µg/mL] | MIC [6, 18] [µM] | Stimulation Index (average ± SD) [10] | MIC [11, 21] [µg/mL] | MIC [11, 22] [µM] | Percentage of viable cells MCF-7 (average ± SD) ([12]; 48 hr) | viability at 100 µM [12, 23] [%] | % Incidence of ulcer divided by 10 [13, 24] | Average of ulcer number [13, 24] | Average severity of ulcer [13, 24] | Number of animals with ulcer [13, 25] | Ulcer index [13, 26] | Potency (%): % inhibition of nitric oxide production relative to lipopolysaccharide-stimulated macrophages [14] [%] | Nitric oxide (nitrite) concentration, μM (average ± SD) [14] [µM] | also measured
1 | COc1cc(/C=C/C(=O)CC(=O)/C=C/c2ccc(OC(=O)[C@H](Cc3ccccc3)NC(=O)OC(C)(C)C)c(OC)c2)ccc1OC(=O)[C@H](Cc1ccccc1)NC(=O)OC(C)(C)C [Boc-L-Phe-Cur, ((1E,6E)-3,5-dioxohepta-1,6-diene-1,7-diyl)bis(2-methoxy-4,1-phenylene) (2S,2′S)-bis(2-((tert-butoxycarbonyl)amino)-3-phenylpropanoate)] | 0.25 | 0.29 | 1 | 1.16 | 1 | 1.16 | 0.125 | 0.145 | 2.56 ± 0.14 | 0.25 | 0.29 |  |  |  |  |  |  |  |  |  | IC50 [2]: > 100 µM; IC50 [5]: > 100 µM; IC50 [7, 19]: > 100 µM; IC50 ([8]; HCT-116): > 100 µM; IC50 [9, 20]: > 100 µM
2 | COc1cc(/C=C/C(=O)CC(=O)/C=C/c2ccc(OC(=O)[C@H](CCSC)NC(=O)OCc3ccccc3)c(OC)c2)ccc1OC(=O)[C@H](CCSC)NC(=O)OCc1ccccc1 [Cbz-Met-Cur, ((1E,6E)-3,5-dioxohepta-1,6-diene-1,7-diyl)bis(2-methoxy-4,1-phenylene) (2S,2′S)-bis(2-(((benzyloxy)carbonyl)amino)-4-(methylthio)butanoate)] | 0.125 | 0.139 | 0.125 | 0.139 | 2 | 2.23 | 0.125 | 0.139 | 1.22 ± 0.29 | 0.125 | 0.139 | 49.74 ± 0.33 | 96.3 ± 3.61 | 3.33 | 0.33 | 0.33 | 2/6 | 3.99 | 44.44 | 15.17 ± 2.30 | activity at 100 µM ([7]; MCF7, 100 μM, 72 h): 71%; activity at 100 µM ([8]; HCT-116, HCT116, 100 μM, 72 h): 85.6 ± 2.4%; activity at 100 µM ([9]; HepG2, 100 μM, 72 h): 85.4 ± 2.4%
3 | COc1cc(/C=C/C(=O)CC(=O)/C=C/c2ccc(O)c(OC)c2)ccc1O [Curcumin, (1E,6E)-1,7-bis(4-hydroxy-3-methoxyphenyl)hepta-1,6-diene-3,5-dione] | 0.125 | 0.339 | 0.125 | 0.339 | 0.125 | 0.339 | 0.125 | 0.339 | 1.52 ± 0.10 | 0.125 | 0.339 |  |  |  |  |  |  |  | 37.11 | 17.18 ± 0.65 | viability at 100 µM ([12]; read-out: Percentage of viable cells MCF-7 (average ± SD), 0 μM DOX, 100 μM curcumin derivative alone, 48 hr): 10.8 ± 4.7%; viability at 100 µM ([12]; read-out: Percentage of viable cells MCF-7 (average ± SD), 10 μM DOX in combination with 100 μM curcumin derivative, 48 hr): 3.16 ± 1.62%; % Incidence of ulcer divided by 10 [13, 27]: 3.33; Average of ulcer number [13, 27]: 0.33; Average severity of ulcer [13, 27]: 0.33; Number of animals with ulcer [13, 27]: 2/6; Ulcer index [13, 27]: 3.99; IC50 ([7]; MCF7, 72 h): 16 µM; activity at 100 µM ([7]; MCF7, 72 h): 4.6 ± 0.2%; activity at 100 µM ([8]; HCT-116, 72 h): 2.4 ± 3.4%; IC50 ([9]; HepG2, 72 h): 38 µM; activity at 100 µM ([9]; HepG2, 72 h): 0.4%
4 | COc1cc(/C=C/C(=O)CC(=O)/C=C/c2ccc(OC(=O)CNC(=O)OCC3c4ccccc4-c4ccccc43)c(OC)c2)ccc1OC(=O)CNC(=O)OCC1c2ccccc2-c2ccccc21 [Fmoc-Gly-Cur, ((1E,6E)-3,5-dioxohepta-1,6-diene-1,7-diyl)bis(2-methoxy-4,1-phenylene) bis(2-((((9H-fluoren-9-yl)methoxy)carbonyl)amino)acetate)] | 1 | 1.08 | 1 | 1.08 | 2 | 2.16 | 1 | 1.08 | 1.76 ± 0.20 | 1 | 1.08 | 30.35 | 98.4 ± 1.46 | 0 | 0 | 0 | 0/6 | 0 | 31.43 | 18.73 ± 1.29 | activity at 100 µM ([7]; MCF7, 100 μM, 72 h): 87 ± 1.5%; activity at 100 µM ([8]; HCT-116, HCT116, 100 μM, 72 h): 95.8 ± 6.7%; activity at 100 µM ([9]; HepG2, 100 μM, 72 h): 82.1 ± 7%
5 | COc1cc(/C=C/C(=O)CC(=O)/C=C/c2ccc(OC(=O)[C@H](CCSC)NC(=O)OCC3c4ccccc4-c4ccccc43)c(OC)c2)ccc1OC(=O)[C@H](CCSC)NC(=O)OCC1c2ccccc2-c2ccccc21 [Fmoc-Met-Cur, ((1E,6E)-3,5-dioxohepta-1,6-diene-1,7-diyl)bis(2-methoxy-4,1-phenylene) (2S,2′S)-bis(2-((((9H-fluoren-9-yl)methoxy)carbonyl)amino)-4-(methylthio)butanoate)] | 2 | 1.86 | 2 | 1.86 | 0.5 | 0.465 | 0.125 | 0.116 | 1.07 ± 0.16 | 0.25 | 0.233 | 38.75 ± 1.65 | 99.3 ± 3.16 | 0 | 0 | 0 | 0/6 | 0 | 47.91 | 14.23 ± 1.05 | activity at 100 µM ([7]; MCF7, 100 μM, 72 h): 88.9 ± 5%; activity at 100 µM ([8]; HCT-116, HCT116, 100 μM, 72 h): 96.4 ± 1.4%; activity at 100 µM ([9]; HepG2, 100 μM, 72 h): 92.4 ± 5.1%
6 | COc1cc(/C=C/C(=O)CC(=O)/C=C/c2ccc(OC(=O)[C@H](CCC(N)=O)NC(=O)OCc3ccccc3)c(OC)c2)ccc1OC(=O)[C@H](CCC(N)=O)NC(=O)OCc1ccccc1 [Z-L-Gln-Cur, ((1E,6E)-3,5-dioxohepta-1,6-diene-1,7-diyl)bis(2-methoxy-4,1-phenylene) (2S,2′S)-bis(5-amino-2-(((benzyloxy)carbonyl)amino)-5-oxopentanoate)] | 0.5 | 0.56 | 1 | 1.12 | 0.5 | 0.56 | 0.125 | 0.14 | 2.37 ± 0.16 | 0.5 | 0.56 |  |  |  |  |  |  |  |  |  | IC50 [2]: 90.7 µM; IC50 [5]: 46.1 µM; IC50 [7, 19]: 10.2 µM; IC50 ([8]; HCT-116): > 100 µM; IC50 [9, 20]: > 100 µM
